The values below come from article PMC8857485, “Prostate secretory protein 94 inhibits sterol binding and export by the mammalian CAP protein CRISP2 in a calcium-sensitive manner” (The Journal of Biological Chemistry, 2022).

Each structure is given as a SMILES string. Residue numbers refer to the chain shown, from its start. Where a name gives a salt, the structure may show the parent alone. Read-outs that look alike come from different tables or passages of the source.

Assay [1] deals with T1, CAP domain of Pry1 (Pry1^CAP) (Saccharomyces cerevisiae, UniProt P47032).
T1 construct: made in house; host or cells: E. coli BL21
Kind of assay: MST binding to the CAP domain of Pry1. An excerpt: (§1) To confirm the direct interaction of PSP94 with CRISP3 and to test whether PSP94 would also bind other CAP family members such as yeast Pry1, or CRISP2, we performed in vitro protein binding assay using microscale thermophoresis (MST). Therefore, PSP94 and the CAP family members, Pry1, CRISP2, and CRISP3, were expressed as fusion proteins with a C-terminal polyhistidine tag in Escherichia coli, and the proteins were affinity purified on nickel-NTA agarose beads. The purified CAP proteins were then fluorescently labeled using RED-tris-NTA and incubated with varying concentrations of PSP94. […] PSP94 thus has high binding affinity for all three CAP proteins tested, and it also binds the CAP domain of Pry1 (Pry1^CAP) alone.
DNA encoding proteins of interest were PCR amplified and cloned into NcoI and XhoI restriction sites of pET22b, which contains a PelB signal sequence to direct the secretion of expressed protein into the periplasmic space. […] Protein concentration was determined by Lowry assay using the Folin reagent and bovine serum albumin as protein standard.
(§2) MST experiments were performed to assess protein–protein, protein–lipid, and protein–calcium interactions using a Monolith NT.115 (Nanotemper Technologies). […] The dissociation constant Kd was obtained by plotting the normalized fluorescence (Fnorm) against the logarithm of ligand concentration. […]

For another assay, the target named is T2, CRISP2 (Homo sapiens, UniProt P16562).
T2 construct: made in house; host or cells: E. coli BL21
T2 sequence (P16562 22-243): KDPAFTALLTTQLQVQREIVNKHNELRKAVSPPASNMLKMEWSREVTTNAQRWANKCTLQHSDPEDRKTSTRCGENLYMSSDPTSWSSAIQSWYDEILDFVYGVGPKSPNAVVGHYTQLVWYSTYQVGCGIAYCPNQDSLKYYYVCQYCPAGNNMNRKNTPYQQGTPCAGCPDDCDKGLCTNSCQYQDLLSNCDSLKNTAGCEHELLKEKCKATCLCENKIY
In words: MST binding to CRISP2. The arrangement: species or system mammalian.
Description: as §1
DNA encoding proteins of interest were PCR amplified and cloned into NcoI and XhoI restriction sites of pET22b, which contains a PelB signal sequence to direct the secretion of expressed protein into the periplasmic space. Plasmids were transformed into E. coli BL21, and proteins were expressed with a C-terminal polyhistidine tag. Different induction strategies were used: overnight induction with lactose at 24 °C for Pry1, CRISP2, and PSP94 and 6 h of induction with 0.4 mM IPTG at 24 °C for the CAP domain of Pry1. Cells were collected and lysed, and the soluble cell lysate was incubated with nickel-nitrilotriacetic acid beads as per the manufacturer instructions (Qiagen). Beads were washed and loaded onto a Ni^2+-NTA column, and proteins were eluted with a buffer containing 60 mM NaH2PO4, 300 mM NaCl, and 300 mM imidazole, pH 8.0. […] Protein concentration was determined by Lowry assay using the Folin reagent and bovine serum albumin as protein standard.
as §2

The target in the next assay is T3, CRISP2^N97P L98G (Homo sapiens, UniProt P16562, L98G/N97P).
T3 construct: made in house; host or cells: E. coli
T3 sequence (P16562 22-243 N97P/L98G): T2 sequence (P16562 22-243) with N76P, L77G
In words: MST binding to CRISP2 double mutant N97P L98G. More on the design: species or system mammalian. Particulars: absence of PSP94, read-out: Kd, sterol binding by CRISP2^N97P L98G. How it is done:
(§3) Next, we generated all three double mutant combinations of CRISP2: N97P L98G, N97P Y99P, and L98G Y99P. These three double mutant versions of CRISP2 were again expressed as His-tagged proteins in E. coli and purified, and their capacity to bind sterols in the presence or absence of PSP94 was assessed by MST. […] The capacity of the CRISP2^L98G Y99P double mutant to bind sterols even in the presence of PSP94 was confirmed by the in vivo sterol export assay (Fig. 6, A and B). When expressed in yeast cells, the CRISP2^L98G Y99P double mutant was stably expressed and secreted as monitored by Western blotting (Fig. 6C).
MST experiments were performed to assess protein–protein, protein–lipid, and protein–calcium interactions using a Monolith NT.115 (Nanotemper Technologies). Proteins were labeled using the RED-tris-NTA His tag protein labeling kit. Labeled CAP proteins, 100 nM, were mixed with a serial dilution of unlabeled PSP94, PSP9^F24G, cholesterol sulfate, or calcium chloride, prepared in binding buffer (20 mM Tris pH 7.5, 30 mM NaCl, 0.05% Triton X-100). Samples were loaded into MST standard capillaries, and MST measurements were performed using an 80% laser power setting. The dissociation constant Kd was obtained by plotting the normalized fluorescence (Fnorm) against the logarithm of ligand concentration. […]

The next assay deals with T4, CRISP2^L98G Y99P (Homo sapiens, UniProt P16562, L98G/Y99P).
T4 construct: made in house; host or cells: E. coli
T4 sequence (P16562 22-243 L98G/Y99P): T2 sequence (P16562 22-243) with L77G, Y78P
In words: MST binding to CRISP2 double mutant L98G Y99P. More on the design: species or system mammalian. As for the experimental part:
as §3
MST experiments were performed to assess protein–protein, protein–lipid, and protein–calcium interactions using a Monolith NT.115 (Nanotemper Technologies). Proteins were labeled using the RED-tris-NTA His tag protein labeling kit. Labeled CAP proteins, 100 nM, were mixed with a serial dilution of unlabeled PSP94, PSP9^F24G, cholesterol sulfate, or calcium chloride, prepared in binding buffer (20 mM Tris pH 7.5, 30 mM NaCl, 0.05% Triton X-100). Samples were loaded into MST standard capillaries, and MST measurements were performed using an 80% laser power setting. The dissociation constant Kd was obtained by plotting the normalized fluorescence (Fnorm) against the logarithm of ligand concentration. Experiments were performed in triplicates, and data were fitted using the Kd model of the MO.Affinity Analysis software (Nanotemper Technologies). For binding inhibition studies, CAP proteins and PSP94 were preincubated for 5 min at 24 °C before performing binding studies with cholesterol sulfate.

T1 sequence (P47032 167-281 limits assumed): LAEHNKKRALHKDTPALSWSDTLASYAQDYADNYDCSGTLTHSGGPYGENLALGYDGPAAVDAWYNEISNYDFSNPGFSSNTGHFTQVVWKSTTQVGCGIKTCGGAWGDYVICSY

On to `CC(C)CCC[C@@H](C)[C@H]1CC[C@H]2[C@@H]3CC=C4C[C@@H](OS(=O)(=O)O)CC[C@]4(C)[C@H]3CC[C@]12C` [cholesterol sulfate], for which the Kd in assay [1] (PSP94^F24G preincubated 5 min at 24 °C, read-out: Kd, sterol binding by Pry1^CAP in presence of PSP94^F24G) worked out at 4.14 ± 0.92 µM; in assay [1] (absence of PSP94, read-out: Kd, sterol binding by Pry1^CAP), 0.9 ± 1.9 µM; at CRISP2 (PSP94^F24G preincubated 5 min at 24 °C, read-out: Kd, sterol binding by CRISP2 in presence of PSP94^F24G), 9.7 ± 3.04 µM; at CRISP2 (absence of PSP94, read-out: Kd, sterol binding by CRISP2), 1.6 ± 0.9 µM; on CRISP2^N97P L98G, 3.8 ± 1.9 µM; at CRISP2^L98G Y99P (+PSP94, read-out: Kd, sterol binding by CRISP2^L98G Y99P in presence of PSP94) it was 0.5 µM. The Kd on CRISP2^L98G Y99P (PSP94^F24G preincubated 5 min at 24 °C, read-out: Kd, sterol binding by CRISP2^L98G Y99P in presence of PSP94^F24G) is 4.5 ± 2.08 µM; on CRISP2^L98G Y99P (absence of PSP94, read-out: Kd, sterol binding by CRISP2^L98G Y99P), 2.2 ± 1.7 µM.
